ChEMBL document CHEMBL1681704, “Design and synthesis of novel allosteric MEK inhibitor CH4987655 as an orally available anticancer agent” (Bioorg Med Chem Lett, 2011)
≈ marks a conversion by molar mass, not a printed value. Blank lines part the entries; values can stand above or below the compound they belong to. Calls of active or inactive are those of the source. The rule behind the calls is not given here.

Key:
[1] = target: Voltage-gated inwardly rectifying potassium channel KCNH2 (Homo sapiens, UniProt Q12809); assay: Inhibition of human ERG
Sequence of Voltage-gated inwardly rectifying potassium channel KCNH2 (Q12809 whole entry): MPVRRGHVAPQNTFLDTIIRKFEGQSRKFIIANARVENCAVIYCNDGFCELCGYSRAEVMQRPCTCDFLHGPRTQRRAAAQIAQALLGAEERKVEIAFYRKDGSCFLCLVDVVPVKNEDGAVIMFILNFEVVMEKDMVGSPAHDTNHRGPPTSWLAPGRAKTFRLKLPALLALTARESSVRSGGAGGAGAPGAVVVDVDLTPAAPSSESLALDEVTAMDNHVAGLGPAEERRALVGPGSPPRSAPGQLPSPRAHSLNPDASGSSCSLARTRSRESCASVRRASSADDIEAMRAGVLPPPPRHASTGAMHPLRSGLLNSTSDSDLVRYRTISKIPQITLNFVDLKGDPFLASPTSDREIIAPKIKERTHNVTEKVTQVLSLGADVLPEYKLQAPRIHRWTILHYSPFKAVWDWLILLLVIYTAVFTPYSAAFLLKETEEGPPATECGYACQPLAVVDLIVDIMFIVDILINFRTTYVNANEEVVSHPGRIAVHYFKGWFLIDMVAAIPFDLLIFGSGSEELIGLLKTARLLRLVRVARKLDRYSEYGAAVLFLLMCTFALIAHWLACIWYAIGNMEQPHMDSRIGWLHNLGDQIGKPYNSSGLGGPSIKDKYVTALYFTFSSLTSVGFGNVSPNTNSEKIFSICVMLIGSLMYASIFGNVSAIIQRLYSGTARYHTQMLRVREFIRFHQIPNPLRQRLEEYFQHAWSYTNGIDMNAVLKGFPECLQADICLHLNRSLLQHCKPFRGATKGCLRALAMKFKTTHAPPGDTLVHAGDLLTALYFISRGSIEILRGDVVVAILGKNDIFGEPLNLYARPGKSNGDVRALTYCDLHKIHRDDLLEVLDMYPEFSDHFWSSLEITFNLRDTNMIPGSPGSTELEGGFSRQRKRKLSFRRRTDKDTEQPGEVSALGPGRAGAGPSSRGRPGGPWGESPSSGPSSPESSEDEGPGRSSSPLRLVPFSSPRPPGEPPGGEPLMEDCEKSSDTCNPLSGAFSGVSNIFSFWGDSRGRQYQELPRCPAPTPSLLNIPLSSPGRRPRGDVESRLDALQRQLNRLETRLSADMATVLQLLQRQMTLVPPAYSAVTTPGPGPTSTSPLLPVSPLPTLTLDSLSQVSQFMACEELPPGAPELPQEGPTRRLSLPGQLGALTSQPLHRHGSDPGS

[2] = tested on: PANC-1; assay: Antitumor activity against human PANC1 cells expressing Kras […] mutant xenografted in CAnN.Cg-Foxn1 nu/CrlCrlj mouse assessed as tumor regression at maximum tolerable dose administered as po qd for 14 days; type: functional
[3] = tested on: HT-29; assay: Inhibition of MEK in human HT-29 cells xenografted in BALB/c nu/nu mouse tumor assessed as phosphorylated ERK level at maximum tolerable dose administered as po; type: functional, cell-based; conditions: Neoplasm
[4] = Genotoxicity in Salmonella Typhimurium by Ames test; type: toxicity; conditions: salmonella enterica subsp. enterica serovar typhimurium
[5] = Tmax in cynomolgus monkey at 3 mg/kg, po; type: ADME, organism-based, Macaca fascicularis; set-up: dose 3 mg/kg, route oral; conditions: in vivo
[6] = tested on: HT-29; assay: Antitumor activity against human HT-29 cells expressing b-Raf V600E mutant xenografted in CAnN.Cg-Foxn1 nu/CrlCrlj mouse assessed as tumor regression at maximum tolerable dose administered as po qd for 14 days; type: functional
[7] = Half life in cynomolgus monkey at 6 mg/kg, po; type: ADME, organism-based, Macaca fascicularis; set-up: dose 6 mg/kg, route oral; conditions: in vivo
[8] = Cmax in cynomolgus monkey at 3 mg/kg, po; type: ADME, organism-based, Macaca fascicularis; set-up: dose 3 mg/kg, route oral; conditions: in vivo
[9] = tested on: Brain; assay: Inhibition of MEK in human HT-29 cells xenografted in BALB/c nu/nu mouse brain assessed as phosphorylated ERK level at maximum tolerable dose administered as po; type: functional, cell-based
[10] = Half life in cynomolgus monkey at 3 mg/kg, po; type: ADME, organism-based, Macaca fascicularis; set-up: dose 3 mg/kg, route oral; conditions: in vivo
[11] = MRT (infinity) in cynomolgus monkey at 1.5 mg/kg, po; type: ADME, organism-based, Macaca fascicularis; set-up: dose 1.5 mg/kg, route oral; conditions: in vivo
[12] = AUC (infinity) in cynomolgus monkey at 6 mg/kg, po; type: ADME, organism-based, Macaca fascicularis; set-up: time infinity, dose 6 mg/kg, route oral; conditions: plasma
[13] = Cmax in cynomolgus monkey at 6 mg/kg, po; type: ADME, organism-based, Macaca fascicularis; set-up: dose 6 mg/kg, route oral; conditions: in vivo
[14] = Tmax in cynomolgus monkey at 6 mg/kg, po; type: ADME, organism-based, Macaca fascicularis; set-up: dose 6 mg/kg, route oral; conditions: in vivo
[15] = Tmax in cynomolgus monkey at 1.5 mg/kg, po; type: ADME, organism-based, Macaca fascicularis; set-up: dose 1.5 mg/kg, route oral; conditions: in vivo
[16] = Antitumor activity against human H441 cells expressing Kras G12V mutant xenografted in CAnN.Cg-Foxn1 nu/CrlCrlj mouse assessed as tumor regression at maximum tolerable dose administered as po qd for 14 days; type: functional, NCI-H441
[17] = AUC (infinity) in cynomolgus monkey at 1.5 mg/kg, po; type: ADME, organism-based, Macaca fascicularis; set-up: time infinity, dose 1.5 mg/kg, route oral; conditions: plasma
[18] = MRT (infinity) in cynomolgus monkey at 3 mg/kg, po; type: ADME, organism-based, Macaca fascicularis; set-up: dose 3 mg/kg, route oral; conditions: in vivo
[19] = MRT (infinity) in cynomolgus monkey at 6 mg/kg, po; type: ADME, organism-based, Macaca fascicularis; set-up: dose 6 mg/kg, route oral; conditions: in vivo
[20] = Half life in human liver microsomes at 1 uM; type: ADME, Microsome
[21] = Half life in mouse liver microsomes at 1 uM; type: ADME, Microsome
[22] = Cmax in cynomolgus monkey at 1.5 mg/kg, po; type: ADME, organism-based, Macaca fascicularis; set-up: dose 1.5 mg/kg, route oral; conditions: in vivo
[23] = target: Cytochrome P450 3A4 (Homo sapiens, UniProt P08684); assay: Inhibition of CYP3A4; type: ADME
Sequence of Cytochrome P450 3A4 (P08684 whole entry): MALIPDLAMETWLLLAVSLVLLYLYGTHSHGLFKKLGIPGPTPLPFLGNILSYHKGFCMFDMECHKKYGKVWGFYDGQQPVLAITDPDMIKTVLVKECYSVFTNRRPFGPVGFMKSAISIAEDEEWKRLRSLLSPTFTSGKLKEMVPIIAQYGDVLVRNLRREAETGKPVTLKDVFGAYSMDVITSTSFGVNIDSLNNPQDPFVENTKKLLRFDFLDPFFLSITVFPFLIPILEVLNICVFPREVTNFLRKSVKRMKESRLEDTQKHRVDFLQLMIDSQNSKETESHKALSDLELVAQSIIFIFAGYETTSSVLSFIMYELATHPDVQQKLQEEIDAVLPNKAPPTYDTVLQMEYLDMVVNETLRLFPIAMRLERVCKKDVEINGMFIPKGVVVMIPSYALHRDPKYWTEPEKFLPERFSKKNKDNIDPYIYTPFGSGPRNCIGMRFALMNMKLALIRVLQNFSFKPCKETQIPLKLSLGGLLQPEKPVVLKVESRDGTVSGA

[24] = Half life in cynomolgus monkey at 1.5 mg/kg, po; type: ADME, organism-based, Macaca fascicularis; set-up: dose 1.5 mg/kg, route oral; conditions: in vivo
[25] = AUC (infinity) in cynomolgus monkey at 3 mg/kg, po; type: ADME, organism-based, Macaca fascicularis; set-up: time infinity, dose 3 mg/kg, route oral; conditions: plasma
[26] = Toxicity in human HT-29 cells xenografted BALB/c nu/nu mouse assessed as maximum tolerable dose; type: organism-based; conditions: in vivo
[27] = tested on: QG-56; assay: Cytotoxicity against human QG56 cells after 4 days; type: functional, cell-based; conditions: QG-56, 96 h
[28] = Inhibition of MEK after 30 mins
[29] = tested on: HT-29; assay: Cytotoxicity against human HT-29 cells after 4 days; type: functional, cell-based; conditions: HT-29, 96 h
[30] = tested on: HT-29; assay: Antitumor activity against human HT-29 cells xenografted in BALB/c nu/nu mouse assessed as tumor growth inhibition at maximum tolerable dose administered as po qd for 14 days; type: functional
[31] = Solubility in 50 mM phosphate buffer at pH 6.5 after 2 hrs; type: physicochemical
[32] = tested on: Cynomolgus monkey; assay: In vivo metabolic stability in cynomolgus monkey assessed as plasma concentration at 2 mg/kg, po; type: ADME, organism-based, Macaca fascicularis; set-up: dose 2 mg/kg, route oral

Tmax [5]: 2.5 h
half-life [7]: 5 h
Cmax [8]: 1000 ng/mL
half-life [10]: 6 h
MRT inf [11]: 8.4 h
AUC(0-inf) [12]: 10400 ng·h/mL
Cmax [13]: 2100 ng/mL
Tmax [14]: 1.5 h
Tmax [15]: 1.3 h
AUC(0-inf) [17]: 2200 ng·h/mL
MRT inf [18]: 8.8 h
MRT inf [19]: 7.3 h
half-life at 1 µM [20]: 1.93 h
half-life at 1 µM [21]: > 6 h
Cmax [22]: 400 ng/mL
IC50 [23]: > 100000 nM
half-life [24]: 6.6 h
AUC(0-inf) [25]: 7400 ng·h/mL
SMILES: O=C(NOCCO)c1cc(CN2OCCCC2=O)c(F)c(F)c1Nc1ccc(I)cc1F [RO-4987655]
inhibition (INH) [1]: Not Active
Activity [2]: 70%
inhibition [3]: Active
Activity [4]: Non-toxic
Activity [6]: 70%
inhibition [9]: inactive
Activity [16]: 70%

SMILES: O=C(NOCCO)c1cc(CNOCCO)c(F)c(F)c1Nc1ccc(I)cc1F
MTD [26]: 100 mg/kg
half-life at 1 µM [20]: > 6 h
half-life at 1 µM [21]: 2.13 h

SMILES: O=C(NOCCO)c1cc(COCCO)c(F)c(F)c1Nc1ccc(I)cc1F
MTD [26]: 50 mg/kg
half-life at 1 µM [20]: > 6 h
half-life at 1 µM [21]: > 6 h

SMILES: C#Cc1ccc(Nc2c(C(=O)NOCCO)cc(/C=N/OCCO)c(F)c2F)c(F)c1
IC50 [27]: 160 nM
IC50 [28]: 235 nM
IC50 [29]: 150 nM
MTD [26]: > 200 mg/kg
half-life at 1 µM [20]: 1.33 h
half-life at 1 µM [21]: 2.25 h
TGI [30]: 82%

IC50 [28]: > 250 nM
half-life at 1 µM [20]: > 6 h
half-life at 1 µM [21]: > 6 h
solubility at 2 h [31]: 284 µM (≈ 157 µg/mL)
SMILES: O=C(NOCCO)c1cc(CN2CCOC2=O)c(F)c(F)c1Nc1ccc(I)cc1F
IC50 [27]: 3060 nM
IC50 [29]: 560 nM

IC50 [28]: 42 nM
half-life at 1 µM [20]: 0.633 h
half-life at 1 µM [21]: 2.1 h
solubility at 2 h [31]: 57 µM (≈ 32.3 µg/mL)
SMILES: O=C(NOCCO)c1cc(CN2OCCOC2=O)c(F)c(F)c1Nc1ccc(I)cc1F
IC50 [27]: 56 nM
IC50 [29]: 17 nM

SMILES: CC(C)(O)CO/N=C/c1cc(C(=O)NOCCO)c(Nc2ccc(I)cc2F)c(F)c1F
IC50 [27]: 128 nM
IC50 [28]: 37 nM
IC50 [29]: 40 nM
MTD [26]: 100 mg/kg
half-life at 1 µM [20]: > 6 h
half-life at 1 µM [21]: > 6 h
TGI [30]: 85%

SMILES: CS(=O)(=O)CCO/N=C/c1cc(C(=O)NOCCO)c(Nc2ccc(I)cc2F)c(F)c1F
IC50 [27]: 24 nM
IC50 [28]: 67 nM
IC50 [29]: 27 nM
MTD [26]: > 200 mg/kg
half-life at 1 µM [20]: 1.5 h
half-life at 1 µM [21]: > 6 h
solubility at 2 h [31]: 1 µM (≈ 0.601 µg/mL)
TGI [30]: 98%

SMILES: O=C(NOCCO)c1cc(/C=N\OCCO)c(F)c(F)c1Nc1ccc(I)cc1F
IC50 [27]: 6 nM
IC50 [28]: 15 nM
IC50 [29]: 2.4 nM
MTD [26]: 12.5 mg/kg
half-life at 1 µM [20]: > 6 h
half-life at 1 µM [21]: > 6 h
TGI [30]: 95%

SMILES: CON(Cc1cc(C(=O)NOCCO)c(Nc2ccc(I)cc2F)c(F)c1F)C(C)=O
MTD [26]: 25 mg/kg
half-life at 1 µM [20]: 1.07 h
half-life at 1 µM [21]: 0.6 h
solubility at 2 h [31]: 116 µM (≈ 64.2 µg/mL)

SMILES: O=C(NOCCO)c1cc(CN2OCCC2=O)c(F)c(F)c1Nc1ccc(I)cc1F
MTD [26]: 12.5 mg/kg
half-life at 1 µM [20]: > 6 h
half-life at 1 µM [21]: > 6 h

IC50 [28]: 85 nM
half-life at 1 µM [20]: 3.08 h
half-life at 1 µM [21]: 2.07 h
solubility at 2 h [31]: 156 µM (≈ 85.7 µg/mL)
SMILES: O=C(NOCCO)c1cc(CN2CCCC2=O)c(F)c(F)c1Nc1ccc(I)cc1F
IC50 [27]: 57 nM
IC50 [29]: 20 nM

SMILES: CC(=O)NCCO/N=C/c1cc(C(=O)NOCCO)c(Nc2ccc(I)cc2F)c(F)c1F
IC50 [27]: 199 nM
IC50 [28]: 48 nM
IC50 [29]: 86 nM
MTD [26]: > 200 mg/kg
half-life at 1 µM [20]: > 6 h
half-life at 1 µM [21]: > 6 h
TGI [30]: 99%

half-life [7]: 5.5 h
AUC(0-inf) [12]: 7900 ng·h/mL
Stability [32]: Stable
Cmax [13]: 1700 ng/mL
Tmax [14]: 1.1 h
MRT inf [19]: 7.3 h
SMILES: O=C(NOC[C@H](O)CO)c1ccc(F)c(F)c1Nc1ccc(I)cc1F [MIRDAMETINIB]
inhibition [3]: Active
inhibition [9]: Active

SMILES: O=C(NOCCO)c1cc(/C=N/OCCO)c(F)c(F)c1Nc1ccc(I)cc1F
IC50 [27]: 160 nM
IC50 [28]: 100 nM
IC50 [29]: 80 nM
MTD [26]: 100 mg/kg
half-life at 1 µM [20]: 1.08 h
half-life at 1 µM [21]: 3.95 h
TGI [30]: 82%
